# Data reported in ChEMBL document CHEMBL3396981, “Synthesis and in vitro biological evaluation of 2-(phenylcarbamoyl)phenyl 4-substituted benzoates” (Bioorg Med Chem, 2015).
# The source made the active and inactive calls. No cut-off for these calls is given here. Bridge positions count the residues as written; N and C are the ends. Square brackets hold non-standard residues; d marks the D form. Peptide text beside a SMILES is read from it. * marks the point of attachment. Ileψ(thiazoline)Cys = CC[C@H](C)[C@H](N)C1=N[C@H](C(=O)*)CS1; dOrn = NCCC[C@@H](N)C(=O)O
# Key:
# Staphylococcus aureus [1] = assay: Antibacterial activity against Staphylococcus aureus CCM 4516/08 after 24 hrs by broth microdilution method; assay type: functional; details: CCM 4516/08, 24 h
# Staphylococcus aureus [2] = assay: Antibacterial activity against Staphylococcus aureus CCM 4516/08 after 48 hrs by broth microdilution method; assay type: functional; details: CCM 4516/08, 48 h
# Staphylococcus aureus [3] = assay: Antibacterial activity against methicillin-resistant Staphylococcus aureus H 5996/08 after 24 hrs by broth microdilution method; assay type: functional; details: H 5996/08, 24 h
# Staphylococcus aureus [4] = assay: Antibacterial activity against methicillin-resistant Staphylococcus aureus H 5996/08 after 48 hrs by broth microdilution method; assay type: functional; details: H 5996/08, 48 h
# [5] = test system: Staphylococcus epidermidis; assay: Antibacterial activity against Staphylococcus epidermidis H 6966/08 after 24 hrs by broth microdilution method; assay type: functional; details: H 6966/08, 24 h
# [6] = test system: Staphylococcus epidermidis; assay: Antibacterial activity against Staphylococcus epidermidis H 6966/08 after 48 hrs by broth microdilution method; assay type: functional; details: H 6966/08, 48 h
# Enterococcus sp. [7] = assay: Antibacterial activity against Enterococcus sp. J 14365/08 after 24 hrs by broth microdilution method; assay type: functional; details: J 14365/08, 24 h
# Enterococcus sp. [8] = assay: Antibacterial activity against Enterococcus sp. J 14365/08 after 48 hrs by broth microdilution method; assay type: functional; details: J 14365/08, 48 h
# HepG2 [9] = assay: Cytotoxicity against human HepG2 cells after 72 hrs by MTT assay; assay type: cell-based; details: HepG2, 72 h
# [10] = Selectivity index, ratio of IC50 for human HepG2 cells to MIC for Staphylococci
# [11] = test system: Mycobacterium tuberculosis; assay: Antimycobacterial activity against Mycobacterium tuberculosis H37Rv 331/88 after 14 days by microdilution method; assay type: functional; details: H37Rv 331/88, 336 h
# [12] = test system: Mycobacterium tuberculosis; assay: Antimycobacterial activity against Mycobacterium tuberculosis H37Rv 331/88 after 21 days by microdilution method; assay type: functional; details: H37Rv 331/88, 504 h
# Mycobacterium avium [13] = assay: Antimycobacterial activity against INH,RIF,OFX,EMB-resistant Mycobacterium avium 330/88 after 14 days by microdilution method; assay type: functional; details: 330/88, 336 h
# Mycobacterium avium [14] = assay: Antimycobacterial activity against INH,RIF,OFX,EMB-resistant Mycobacterium avium 330/88 after 21 days by microdilution method; assay type: functional; details: 330/88, 504 h
# Mycobacterium kansasii [15] = assay: Antimycobacterial activity against Mycobacterium kansasii 235/80 after 7 days by microdilution method; assay type: functional; details: 235/80, 168 h
# Mycobacterium kansasii [16] = assay: Antimycobacterial activity against Mycobacterium kansasii 235/80 after 14 days by microdilution method; assay type: functional; details: 235/80, 336 h
# Mycobacterium kansasii [17] = assay: Antimycobacterial activity against Mycobacterium kansasii 235/80 after 21 days by microdilution method; assay type: functional; details: 235/80, 504 h
# Mycobacterium kansasii [18] = assay: Antimycobacterial activity against Mycobacterium kansasii 6509/96 after 7 days by microdilution method; assay type: functional; details: 6509/96, 168 h
# Mycobacterium kansasii [19] = assay: Antimycobacterial activity against Mycobacterium kansasii 6509/96 after 14 days by microdilution method; assay type: functional; details: 6509/96, 336 h
# Mycobacterium kansasii [20] = assay: Antimycobacterial activity against Mycobacterium kansasii 6509/96 after 21 days by microdilution method; assay type: functional; details: 6509/96, 504 h
# [21] = Selectivity index, ratio of IC50 for human HepG2 cells to MIC for Mycobacterium tuberculosis; assay type: toxicity, cell-based; details: read-out: Selectivity Index
# in vitro = details: human, HepG2 cells
# Description: Selectivity index, ratio of IC50 for human HepG2 cells to MIC for Mycobacterium kansasii 6509/96
# Trichosporon asahii [22] = assay: Antifungal activity against Trichosporon asahii 1188 after 24 hrs by broth microdilution method; assay type: functional; details: Trichosporon asahii, 1188, 24 h
# Trichosporon asahii [23] = assay: Antifungal activity against Trichosporon asahii 1188 after 48 hrs by broth microdilution method; assay type: functional; details: Trichosporon asahii, 1188, 48 h
# HepG2 [24] = assay: Cytostatic activity against human HepG2 cells after 72 hrs by MTT assay; assay type: functional, cell-based; details: HepG2, 72 h
# [25] = Selectivity index, ratio of IC50 for human HepG2 cells to MIC for atypical mycobacteria
# Candida albicans = assay: Antifungal activity against Candida albicans ATCC 44859 after 24 to 48 hrs by broth dilution method; assay type: functional, organism-based
# Candida tropicalis = assay: Antifungal activity against Candida tropicalis 156 after 24 to 48 hrs by broth dilution method; assay type: functional, organism-based
# Pichia kudriavzevii = assay: Antifungal activity against Candida krusei E28 after 24 to 48 hrs by broth dilution method; assay type: functional, organism-based
# Nakaseomyces glabratus = assay: Antifungal activity against Candida glabrata 20/I after 24 to 48 hrs by broth dilution method; assay type: functional, organism-based
# Aspergillus fumigatus = assay: Antifungal activity against Aspergillus fumigatus 231 after 24 to 48 hrs by broth dilution method; assay type: functional, organism-based
# Lichtheimia corymbifera = assay: Antifungal activity against Absidia corymbifera 272 after 24 to 48 hrs by broth dilution method; assay type: functional, organism-based
# [26] = test system: Trichophyton mentagrophytes; assay: Antifungal activity against Trichophyton mentagrophytes 445 after 24 to 48 hrs by broth dilution method; assay type: functional, organism-based
# [27] = Selectivity index, ratio of IC50 for human HepG2 cells to MIC for Staphylococcus aureus CCM 4516/08
SMILES,MIC (Staphylococcus aureus [1]),MIC (Staphylococcus aureus [2]),MIC (Staphylococcus aureus [3]),MIC (Staphylococcus aureus [4]),MIC [5],MIC [6],IC50 (HepG2 [9]),MIC [11],MIC [12],MIC (Mycobacterium avium [13]),MIC (Mycobacterium avium [14]),MIC (Mycobacterium kansasii [15]),MIC (Mycobacterium kansasii [16]),MIC (Mycobacterium kansasii [17]),MIC (Mycobacterium kansasii [18]),MIC (Mycobacterium kansasii [19]),MIC (Mycobacterium kansasii [20]),selectivity ratio [21],IC50 (HepG2 [24]),Selectivity Index [25],also measured
CC[C@H](C)[C@H](N)C1=N[C@H](C(=O)N[C@@H](CC(C)C)C(=O)N[C@H](CCC(=O)O)C(=O)N[C@H](C(=O)N[C@H]2CCCCNC(=O)[C@H](CC(N)=O)NC(=O)[C@@H](CC(=O)O)NC(=O)[C@H](Cc3cnc[nH]3)NC(=O)[C@@H](Cc3ccccc3)NC(=O)[C@H]([C@@H](C)CC)NC(=O)[C@@H](CCCN)NC2=O)[C@@H](C)CC)CS1 [BACITRACIN] ({Ileψ(thiazoline)Cys}-L[dE]IK[dOrn]I[dF]H[dD]N; lactam 4-C),7.81 µM,15.6 µM,15.6 µM,15.6 µM,15.6 µM,31.2 µM,255 µM,,,,,,,,,,,,,,MIC (Enterococcus sp. [7]): 15.6 µM; MIC (Enterococcus sp. [8]): 62.5 µM; Selectivity Index [10]: 8.1
NNC(=O)c1ccncc1 [ISONIAZID],,,,,,,> 250 µM,0.5 µM,0.5 µM,> 250 µM,> 250 µM,> 250 µM,> 250 µM,> 250 µM,2 µM,4 µM,4 µM,> 250,,,selectivity ratio (in vitro): ≥ 31.3
O=C(Oc1ccc(Cl)cc1C(=O)Nc1ccc(Cl)c(Cl)c1)c1ccc([N+](=O)[O-])cc1,0.49 µM,0.49 µM,0.49 µM,0.49 µM,0.49 µM,0.49 µM,> 50 µM,0.5 µM,1 µM,8 µM,8 µM,2 µM,4 µM,4 µM,2 µM,4 µM,4 µM,> 50,3.55 µM,>6.25,MIC (Enterococcus sp. [7]): 62.5 µM; MIC (Enterococcus sp. [8]): > 125 µM; MIC (Trichosporon asahii [22]): 31.2 µM; MIC (Trichosporon asahii [23]): > 125 µM; Selectivity Index [10]: >102; Activity (Candida albicans): inactive; Activity (Candida tropicalis): inactive; Activity (Pichia kudriavzevii): inactive; Activity (Nakaseomyces glabratus): inactive; Activity (Aspergillus fumigatus): inactive; Activity (Lichtheimia corymbifera): inactive; Activity [26]: inactive
CC1(C)S[C@@H]2[C@H](NC(=O)Cc3ccccc3)C(=O)N2[C@H]1C(=O)O [PENICILLIN G],0.98 µM,0.98 µM,62.5 µM,125 µM,250 µM,250 µM,> 10000 µM,,,,,,,,,,,,,,MIC (Enterococcus sp. [7]): 7.81 µM; MIC (Enterococcus sp. [8]): 15.6 µM; Selectivity Index [27]: >10204
O=C(Oc1ccc(Cl)cc1C(=O)Nc1ccc(Cl)c(Cl)c1)c1ccc(Br)cc1,0.49 µM,0.49 µM,0.49 µM,0.49 µM,0.49 µM,0.49 µM,> 50 µM,1 µM,1 µM,8 µM,8 µM,2 µM,4 µM,4 µM,1 µM,4 µM,4 µM,> 50,2.5 µM,>6.25,MIC (Enterococcus sp. [7]): 31.2 µM; MIC (Enterococcus sp. [8]): 500 µM; MIC (Trichosporon asahii [22]): 500 µM; MIC (Trichosporon asahii [23]): > 500 µM; Selectivity Index [10]: >102; Activity (Candida albicans): inactive; Activity (Candida tropicalis): inactive; Activity (Pichia kudriavzevii): inactive; Activity (Nakaseomyces glabratus): inactive; Activity (Aspergillus fumigatus): inactive; Activity (Lichtheimia corymbifera): inactive; Activity [26]: inactive
Cc1ccc(C(=O)Oc2ccc(Cl)cc2C(=O)Nc2ccc(Cl)c(Cl)c2)cc1,,,,,,,> 50 µM,1 µM,1 µM,8 µM,8 µM,1 µM,2 µM,2 µM,2 µM,4 µM,4 µM,> 50,2.55 µM,>6.25,
Cc1ccc(C(=O)Oc2ccc(Cl)cc2C(=O)Nc2ccc(C(F)(F)F)cc2)cc1,> 250 µM,> 250 µM,> 250 µM,> 250 µM,> 250 µM,> 250 µM,> 50 µM,0.5 µM,0.5 µM,4 µM,4 µM,1 µM,1 µM,2 µM,1 µM,2 µM,2 µM,> 100,6.9 µM,>12.5,MIC (Enterococcus sp. [7]): > 250 µM; MIC (Enterococcus sp. [8]): > 250 µM; MIC (Trichosporon asahii [22]): > 250 µM; MIC (Trichosporon asahii [23]): > 250 µM
OC(Cn1cncn1)(Cn1cncn1)c1ccc(F)cc1F [FLUCONAZOLE],,,,,,,,,,,,,,,,,,,,,MIC (Trichosporon asahii [22]): 4 µM; MIC (Trichosporon asahii [23]): 9 µM
Cc1ccc(C(=O)Oc2ccc(Br)cc2C(=O)Nc2ccc(C(F)(F)F)cc2)cc1,> 125 µM,> 125 µM,> 125 µM,> 125 µM,> 125 µM,> 125 µM,> 50 µM,1 µM,1 µM,4 µM,8 µM,1 µM,2 µM,2 µM,2 µM,2 µM,4 µM,> 50,26.8 µM,>6.25,MIC (Enterococcus sp. [7]): > 125 µM; MIC (Enterococcus sp. [8]): > 125 µM; MIC (Trichosporon asahii [22]): > 125 µM; MIC (Trichosporon asahii [23]): > 125 µM
O=C(Oc1ccc(Cl)cc1C(=O)Nc1ccc(C(F)(F)F)cc1)c1ccc([N+](=O)[O-])cc1,,,,,,,> 50 µM,0.5 µM,1 µM,4 µM,4 µM,1 µM,2 µM,4 µM,1 µM,2 µM,4 µM,> 50,1.15 µM,>12.5,
O=C(Oc1ccc(Br)cc1C(=O)Nc1ccc(C(F)(F)F)cc1)c1ccc([N+](=O)[O-])cc1,,,,,,,> 50 µM,0.5 µM,0.5 µM,1 µM,2 µM,0.5 µM,1 µM,1 µM,0.5 µM,0.5 µM,1 µM,> 100,1.25 µM,>25,
